# Laboratory results taken from BindingDB's records for doi:10.1021/acsmedchemlett.8b00054 (Shandong University, 2018).
# How the values were obtained:
# [1] = system: wild-type HIV1 3B reverse transcriptase (virus infecting MT4 cells); assay: Inhibition of wild-type HIV1 3B reverse transcriptase infected in human MT4 cells assessed as protection against virus-induced cytotoxicity by MTT assay
# [2] = system: HIV1 RES056 reverse transcriptase K103N/Y181C double mutant (virus infecting MT4 cells); assay: Inhibition of HIV1 RES056 reverse transcriptase K103N/Y181C double mutant infected in human MT4 cells assessed as protection against virus-induced cytotoxicity by MTT assay
# [3] = Inhibition of HIV1 reverse transcriptase K103N mutant infected in human MT4 cells assessed as protection against virus-induced cytotoxicity by MTT assay
# [4] = Inhibition of HIV1 reverse transcriptase E138K mutant infected in human MT4 cells assessed as protection against virus-induced cytotoxicity by MTT assay
# [5] = Inhibition of HIV1 reverse transcriptase Y181C mutant infected in human MT4 cells assessed as protection against virus-induced cytotoxicity by MTT assay
# [6] = Inhibition of HIV1 reverse transcriptase L100I mutant infected in human MT4 cells assessed as protection against virus-induced cytotoxicity by MTT assay
# [7] = Inhibition of HIV1 reverse transcriptase Y188L mutant infected in human MT4 cells assessed as protection against virus-induced cytotoxicity by MTT assay
# [8] = Inhibition of HIV1 reverse transcriptase F227L/V106A double mutant infected in human MT4 cells assessed as protection against virus-induced cytotoxicity by MTT assay
structure (smiles),measurement,setting,value
Cc1cc(C#N)cc(C)c1Oc1nc(NC2CCN(Cc3ccc(C(N)=O)cc3)CC2)nc2ccn(COCc3ccccc3)c12,EC50,[1],36 nM
same,EC50,[2],567 nM
Cc1cc(C#N)cc(C)c1Oc1nc(NC2CCN(Cc3ccc(S(C)(=O)=O)cc3)CC2)nc2cc[nH]c12,EC50,[1],5.9 nM
same,EC50,[2],116 nM
Cc1cc(C#N)cc(C)c1Oc1nc(NC2CCN(Cc3ccc(S(C)(=O)=O)cc3)CC2)nc2ccn(S(=O)(=O)c3ccccc3)c12,EC50,[1],31 nM
same,EC50,[2],187 nM
Cc1cc(C#N)cc(C)c1Oc1nc(Nc2ccc(C#N)cc2)nc(N)c1Br,EC50,[1],4 nM
same,EC50,[2],34 nM
Cc1cc(C#N)cc(C)c1Oc1nc(NC2CCN(Cc3ccc(C(N)=O)cc3)CC2)nc2cc[nH]c12,EC50,[1],5.7 nM
same,EC50,[2],113 nM
Cc1cc(C#N)cc(C)c1Oc1nc(NC2CCN(Cc3c[nH]cn3)CC2)nc2ccsc12,EC50,[1],5.5 nM
same,EC50,[2],1170 nM
same,EC50,[3],6 nM
same,EC50,[4],12 nM
Cc1cc(C#Cc2ccccn2)cc(C)c1Oc1nc(NC2CCN(Cc3ccc(S(N)(=O)=O)cc3)CC2)nc2ccsc12,EC50,[1],9 nM
same,EC50,[2],888 nM
Cc1cc(/C=C/C#N)cc(C)c1Nc1nc(NC2CCN(Cc3ccc(S(N)(=O)=O)cc3)CC2)nc2ccsc12,EC50,[1],1.2 nM
same,EC50,[2],5 nM
Cc1cc(C#N)cc(C)c1Oc1nc(NC2CCN(Cc3cc(=O)[nH]c(=O)[nH]3)CC2)nc2ccsc12,EC50,[1],7.2 nM
same,EC50,[2],8970 nM
same,EC50,[3],6.1 nM
same,EC50,[4],7 nM
Cc1cc(C#N)cc(C)c1Nc1nc(NC2CCN(Cc3ccc(S(N)(=O)=O)cc3)CC2)nc2ccsc12,EC50,[1],1.4 nM
same,EC50,[2],31 nM
Cc1ccnc2c1NC(=O)c1cccnc1N2C1CC1 [BI-RG-587],EC50,[1],124 nM
same,EC50,[2],> 15000 nM
Cc1cc(C#N)cc(C)c1Oc1nc(NC2CCN(Cc3ccc(S(N)(=O)=O)cc3)CC2)nc2ccn(COCc3ccccc3)c12,EC50,[1],9.5 nM
same,EC50,[2],484 nM
Cc1cc(C#N)cc(C)c1Oc1nc(NC2CCN(Cc3ccc(S(N)(=O)=O)cc3)CC2)nc2cc[nH]c12,EC50,[1],2.4 nM
same,EC50,[2],85 nM
same,EC50,[3],1 nM
same,EC50,[4],4 nM
same,EC50,[5],4.8 nM
same,EC50,[6],4.2 nM
same,EC50,[7],7.2 nM
same,EC50,[8],18 nM
Cc1cc(C#N)cc(C)c1Oc1nc(NC2CCN(Cc3ccco3)CC2)nc2ccsc12,EC50,[1],3.6 nM
same,EC50,[2],> 272000 nM
same,EC50,[4],8.8 nM
Cc1cc(C#N)cc(C)c1Oc1nc(NC2CCN(Cc3ccc(C(N)=O)cc3)CC2)nc2ccn(S(=O)(=O)c3ccccc3)c12,EC50,[1],17 nM
same,EC50,[2],2290 nM
Cc1cc(C#N)cc(C)c1Oc1nc(NC2CCN(Cc3cn(S(C)(=O)=O)cn3)CC2)nc2ccsc12,EC50,[1],5.7 nM
same,EC50,[2],2700 nM
same,EC50,[3],4.5 nM
same,EC50,[4],13 nM
Cc1cc(C#N)cc(C)c1Oc1nc(NC2CCN(Cc3n[nH]c(=O)n3C)CC2)nc2ccsc12,EC50,[1],14 nM
same,EC50,[2],17100 nM
Cc1cc(C#Cc2ccncc2)cc(C)c1Oc1nc(NC2CCN(Cc3ccc(S(N)(=O)=O)cc3)CC2)nc2ccsc12,EC50,[1],34 nM
same,EC50,[2],223 nM
Cc1cc(C#N)cc(C)c1Oc1nc(NC2CCN(Cc3ccc(S(N)(=O)=O)cc3)CC2)nc2ccn(S(=O)(=O)c3ccccc3)c12,EC50,[1],8.9 nM
same,EC50,[2],110 nM
"Cc1cn([C@H]2C[C@H](N=[N+]=[N-])[C@@H](CO)O2)c(=O)[nH]c1=O [1-((2R,4S,5S)-4-Azido-5-hydroxymethyl-tetrahydro-furan-2-yl)-5-methyl-1H-pyrimidine-2,4-dione]",EC50,[1],7 nM
same,EC50,[2],17 nM
Cc1cc(C#N)cc(C)c1Oc1nc(NC2CCN(Cc3ccc(S(C)(=O)=O)cc3)CC2)nc2ccn(COCc3ccccc3)c12,EC50,[1],26 nM
same,EC50,[2],547 nM
Cc1cc(C#Cc2cccnc2)cc(C)c1Oc1nc(NC2CCN(Cc3ccc(S(N)(=O)=O)cc3)CC2)nc2ccsc12,EC50,[1],41 nM
same,EC50,[2],153 nM
Cc1cc(C#N)cc(C)c1Oc1nc(NC2CCN(Cc3ccc(N4CCCC4)cc3)CC2)nc2ccsc12,EC50,[1],33 nM
same,EC50,[2],> 4360 nM
